Laboratory results as given in the supplement of paper PMC13380429.

Experiments:
Details in all cases: 72 h
Vero E6 [1] = test: relative viability EC50 (midpoint between 100% and the lowest measured viability); higher = less toxic
U2OS [2] = test: as above
Calu-3 [3] = test: as above
HepG2 [4] = test: as above
Caco-2 [5] = test: as above
Vero E6 [6] = test: drug sensitivity score (DSS) for viability; higher = more toxic; extreme values may be limits of the assay
U2OS [7] = test: as above
Calu-3 [8] = test: as above
HepG2 [9] = test: as above
Caco-2 [10] = test: as above
Vero E6 [11] = test: cell viability relative to DMSO; higher = less toxic
U2OS [12] = test: as above
Calu-3 [13] = test: as above
HepG2 [14] = test: as above
Caco-2 [15] = test: as above

Row | SMILES | relative viability EC50 (Vero E6 [1]) | relative viability EC50 (U2OS [2]) | relative viability EC50 (Calu-3 [3]) | relative viability EC50 (HepG2 [4]) | relative viability EC50 (Caco-2 [5]) | drug sensitivity score (Vero E6 [6]) | drug sensitivity score (U2OS [7]) | drug sensitivity score (Calu-3 [8]) | drug sensitivity score (HepG2 [9]) | drug sensitivity score (Caco-2 [10]) | cell viability (Vero E6 [11]; 1 nM) | cell viability (Vero E6 [11]; 10 nM) | cell viability (Vero E6 [11]; 100 nM) | cell viability (Vero E6 [11]; 1000 nM) | cell viability (Vero E6 [11]; 10000 nM) | cell viability (U2OS [12]; 1 nM) | cell viability (U2OS [12]; 10 nM) | cell viability (U2OS [12]; 100 nM) | cell viability (U2OS [12]; 1000 nM) | cell viability (U2OS [12]; 10000 nM) | cell viability (Calu-3 [13]; 1 nM) | cell viability (Calu-3 [13]; 10 nM) | cell viability (Calu-3 [13]; 100 nM) | cell viability (Calu-3 [13]; 1000 nM) | cell viability (Calu-3 [13]; 10000 nM) | cell viability (HepG2 [14]; 1 nM) | cell viability (HepG2 [14]; 10 nM) | cell viability (HepG2 [14]; 100 nM) | cell viability (HepG2 [14]; 1000 nM) | cell viability (HepG2 [14]; 10000 nM) | cell viability (Caco-2 [15]; 1 nM) | cell viability (Caco-2 [15]; 10 nM) | cell viability (Caco-2 [15]; 100 nM) | cell viability (Caco-2 [15]; 1000 nM) | cell viability (Caco-2 [15]; 10000 nM)
1 | C#CCN(C)Cc1ccccc1 [pargyline] | > 10 µM | > 10 µM | > 10 µM | > 10 µM | > 10 µM | 0 | 0 | 0 | 0 | 0 | 96.4% | 96.3% | 92.7% | 93.1% | 107% | 99.2% | 101% | 99.9% | 102% | 103% | 93.5% | 97.4% | 95.4% | 89.3% | 102% | 98.7% | 96.2% | 109% | 89.7% | 102% | 96% | 93% | 96.3% | 98.6% | 103%
2 | Cc1cc(-n2c(=O)[nH]c(=O)n(C)c2=O)ccc1Oc1ccc(SC(F)(F)F)cc1 [toltrazuril] | > 10 µM | > 10 µM | > 10 µM | > 10 µM | > 10 µM | 0 | 0 | 0 | 0 | 0 | 99.5% | 105% | 101% | 96.3% | 95.8% | 97.2% | 95.2% | 93.1% | 99.6% | 92.1% | 98.8% | 83.1% | 105% | 106% | 101% | 90.4% | 107% | 99.5% | 95.9% | 102% | 104% | 109% | 105% | 97.1% | 97.4%
3 | CN1C(=O)OC(C)(C)C1=O [trimethadione] | > 10 µM | > 10 µM | > 10 µM | > 10 µM | > 10 µM | 0 | 0 | 0 | 3.4 | 0 | 100% | 100% | 101% | 85.1% | 104% | 103% | 99.9% | 103% | 105% | 108% | 96.1% | 102% | 97.9% | 118% | 108% | 103% | 105% | 93.6% | 80.4% | 90% | 101% | 97.3% | 114% | 90% | 93.3%
4 | N[C@@H]1CCCN(c2c(/C=C3\SC(=O)NC3=O)cccc2-c2ccccc2)C1 [AZD1208] | > 10 µM | > 10 µM | > 10 µM | > 10 µM | > 10 µM | 0 | 0 | 0 | 1.2 | 0 | 98.3% | 99.9% | 87.9% | 91.8% | 96.2% | 97.1% | 88.9% | 93.3% | 95.6% | 96.7% | 105% | 94.4% | 92.4% | 86.6% | 99.8% | 92.6% | 104% | 93.5% | 89.8% | 80% | 103% | 97.5% | 109% | 95.3% | 98.6%
5 | CN[C@@H](C)CCC=C(C)C [isometheptene-mucate] | > 10 µM | > 10 µM | > 10 µM | > 10 µM | > 10 µM | 0 | 0 | 0 | 0 | 0 | 91.1% | 96.2% | 92.5% | 97% | 104% | 104% | 96.5% | 98.7% | 103% | 105% | 94% | 100% | 98.1% | 100% | 108% | 96.1% | 101% | 107% | 94.5% | 95% | 93.4% | 102% | 93.7% | 93.9% | 106%
6 | CN1C(=O)C(N2CCCCC2)S/C1=C\C(=O)O (stereo not given) [ozolinone] | > 10 µM | > 10 µM | > 10 µM | > 10 µM | > 10 µM | 0 | 0 | 0 | 0 | 0 | 97.1% | 103% | 97% | 102% | 117% | 95.5% | 97.5% | 102% | 99.6% | 100% | 102% | 93.9% | 94.1% | 93.5% | 95% | 89.5% | 107% | 104% | 87.1% | 105% | 113% | 96.7% | 92.1% | 105% | 114%
7 | CCCNCCc1ccc(NS(=O)(=O)c2ccc(OC(F)(F)F)cc2)cc1 | > 10 µM | > 10 µM | > 10 µM | > 10 µM | > 10 µM | 0 | 0 | 0 | 1.1 | 0 | 116% | 106% | 101% | 103% | 88.2% | 105% | 104% | 100% | 98.4% | 92.9% | 97.8% | 108% | 102% | 100% | 97.4% | 101% | 92.5% | 104% | 85.5% | 90% | 102% | 102% | 91.5% | 103% | 98.2%
8 | O=c1c(-c2ccc(O)cc2)coc2c([C@@H]3O[C@H](CO)[C@@H](O)[C@H](O)[C@H]3O)c(O)ccc12 [puerarin] | > 10 µM | > 10 µM | > 10 µM | > 10 µM | > 10 µM | 0 | 0 | 0 | 0 | 0 | 99.7% | 99.5% | 99.9% | 107% | 103% | 99.7% | 95.2% | 96% | 94.6% | 100% | 89.3% | 92.3% | 97.5% | 89.6% | 95.6% | 94.4% | 102% | 94.8% | 107% | 98.2% | 98.4% | 99.8% | 96% | 98% | 101%
9 | CC(C)C(=O)SCCCCC[C@H](NC(=O)OC(C)(C)C)C(=O)NC12CC3CC(CC(C3)C1)C2 [TCS-HDAC6-20b] | > 10 µM | > 10 µM | > 10 µM | > 10 µM | > 10 µM | 0 | 0 | 0.1 | 0 | 0 | 96.5% | 96.2% | 97% | 98.9% | 113% | 101% | 102% | 106% | 98.4% | 98.4% | 101% | 93.3% | 95.6% | 108% | 85.3% | 101% | 99.3% | 101% | 96.5% | 105% | 97.7% | 96.9% | 95.5% | 102% | 103%
10 | N[C@@H](CCC(=O)N[C@@H](CSN=O)C(=O)NCC(=O)O)C(=O)O [S-nitrosoglutathione] | > 10 µM | > 10 µM | > 10 µM | > 10 µM | > 10 µM | 0 | 0 | 0 | 0 | 0 | 93.6% | 97.2% | 95.2% | 95.2% | 101% | 98% | 97.6% | 92.9% | 98.3% | 101% | 94% | 99.2% | 93.9% | 108% | 108% | 102% | 98.4% | 108% | 91.7% | 99% | 101% | 98.2% | 96.3% | 87.9% | 99.9%
11 | CCCC[C@H](NC(=O)[C@@H]1[C@@H]2[C@H](CN1C(=O)[C@@H](NC(=O)NC1(CS(=O)(=O)C(C)(C)C)CCCCC1)C(C)(C)C)C2(C)C)C(=O)C(=O)NC1CC1 [narlaprevir] | > 10 µM | > 10 µM | > 10 µM | > 10 µM | > 10 µM | 0.1 | 0 | 0 | 0 | 0 | 98.1% | 100% | 102% | 99.5% | 87.8% | 104% | 98.8% | 100% | 96.9% | 97.1% | 90.9% | 108% | 92.5% | 94.5% | 107% | 102% | 112% | 96.3% | 103% | 94.7% | 100% | 96.4% | 102% | 93.8% | 95.5%
12 | Nc1nc(F)nc2c1ncn2[C@@H]1O[C@H](CO)[C@@H](O)[C@@H]1O [fludarabine] | > 10 µM | > 10 µM | > 10 µM | > 10 µM | > 10 µM | 0 | 0 | 0.7 | 1.1 | 0 | 93.9% | 95.2% | 92.8% | 99.4% | 101% | 98.8% | 102% | 98.6% | 102% | 103% | 111% | 88.9% | 95.2% | 87.6% | 87.5% | 103% | 95.6% | 95.2% | 95.6% | 79.4% | 94.1% | 104% | 102% | 99.9% | 102%
13 | O=C(O)C(=O)c1cn(Cc2ccccc2)c2ccc(-c3ccc(OC(F)(F)F)cc3)cc12 [tiplaxtinin] | > 10 µM | > 10 µM | > 10 µM | > 10 µM | > 10 µM | 0.7 | 0 | 0 | 0 | 0 | 108% | 106% | 96.6% | 98.2% | 81.3% | 94.5% | 92.1% | 104% | 94.7% | 96.5% | 113% | 95.5% | 96.8% | 98.6% | 104% | 104% | 98.8% | 102% | 93.8% | 93.1% | 104% | 106% | 102% | 92.2% | 92.8%
14 | CC(Oc1ccc(O)cc1)(P(=O)(O)O)P(=O)(O)O | > 10 µM | > 10 µM | > 10 µM | > 10 µM | > 10 µM | 0 | 0 | 0 | 0 | 0 | 96.5% | 104% | 97.7% | 98.7% | 95.8% | 104% | 99.5% | 105% | 98% | 100% | 106% | 88.6% | 103% | 84.8% | 97.1% | 106% | 95.4% | 97.6% | 99.2% | 102% | 110% | 98.7% | 98% | 87.1% | 104%
